According to patent US20110015067A1, “Herbicidal Compositions Comprising Pyroxasulfone” (BASF SE, priority 2008, published 2011):

Tests used:
Assay type in all cases: in vivo
[1] = test system: MERAN (Mercurialis annua); experiment: post-emergence greenhouse test; details: 7.5 g ai/ha
Source text: (§1) For the post-emergence treatment, the test plants were first grown to a height of 3 to 20 cm, depending on the plant habit, and only then treated. Here, the herbicidal compositions were suspended or emulsified in water as distribution medium and sprayed using finely distributing nozzles.
(§2) The respective herbicides A and/or safener were formulated as 10% by weight strength suspension concentrate and introduced to the spray liquor with the amount of solvent system used for applying the active compound. Herbicide B and/or safener were used as commercially available formulations and introduced to the spray liquor with the amount of solvent system used for applying the active compound. In the examples, the solvent used was water.
(§3) The test period extended over 20 days. During this time, the plants were tended, and their response to the treatments with active compound was evaluated.
(§4) In the following experiments, the herbicidal activity for the individual herbicide compounds (solo application) and of the mixture was assessed 8 days after treatment (8 DAT) and/or 20 days after treatment (20 DAT).
(§5) The evaluation for the damage caused by the chemical compositions was carried out using a scale from 0 to 100%, compared to the untreated control plants. Here, 0 means no damage and 100 means complete destruction of the plants.

[2] = test system: CHEAL (Chenopodium album); experiment: post-emergence greenhouse test; details: 15 g ai/ha
Source text: as §1, §2, §3, §4, §5

[3] = test system: ALOMY (Alopecurus myosuroides); experiment: post-emergence greenhouse test; details: 3.75 g ai/ha
Source text: as §1, §2, §3, §4, §5

[4] = test system: ECHCG (Echinochloa crus-galli); experiment: pre-emergence greenhouse test; details: for observed activity in % destruction: pre-emergence
Source text: (§6) For the pre-emergence treatment, directly after sowing the active compounds, which had been suspended or emulsified in water, were applied by means of finely distributed nozzles. The containers were irrigated gently to promote germination and growth and subsequently covered with transparent plastic hoods until plant had rooted. This cover caused uniform germination of the tests plants, unless this was adversely affected by active compounds.
as §2, §3, §4, §5

[5] = test system: AMARE (Amaranthus retroflexus); experiment: pre-emergence greenhouse test; details: pre-emergence
Source text: as §6, §2, §3, §4, §5

PHBPU (Ipomoea purpurea) = experiment: pre-emergence greenhouse test; details: for observed activity in % destruction: pre-emergence, 3.75 g ai/ha
Source text: as §6, §2, §3, §4, §5

ERBVI = experiment: pre-emergence greenhouse test; details: ERBVI pre-emergence 15 g ai/ha
Source text: as §6, §2, §3, §4, §5

[6] = test system: ABUTH (Abutilon theophrasti); experiment: pre-emergence greenhouse test; details: pre-emergence, 7.5 g ai/ha
Source text: as §6, §2, §3, §4, §5

[7] = test system: BRAPL (Brachiaria plantaginea); experiment: pre-emergence greenhouse test; details: for observed activity in % destruction: pre-emergence, 15 g ai/ha
Source text: as §6, §2, §3, §4, §5

SETVI (Setaria viridis) = experiment: pre-emergence greenhouse test
Source text: as §6, §2, §3, §4, §5

[8] = test system: ALOMY (Alopecurus myosuroides); experiment: pre-emergence greenhouse test; details: for observed activity in % destruction: pre-emergence, 15 g ai/ha
Source text: as §6, §2, §3, §4, §5

[9] = test system: PANDI (Panicum dichotomiflorum); experiment: pre-emergence greenhouse test; details: pre-emergence
Source text: as §6, §2, §3, §4, §5

[10] = test system: LOLMU (Lolium multiflorum); experiment: pre-emergence greenhouse test; details: for observed activity in % destruction: pre-emergence
Source text: as §6, §2, §3, §4, §5

[11] = test system: COMBE (Commelina benghalensis); experiment: pre-emergence greenhouse test; details: for observed activity in % destruction: pre-emergence
Source text: as §6, §2, §3, §4, §5

SOLNI (Solanum nigrum) = experiment: pre-emergence greenhouse test; details: for observed activity in % destruction: pre-emergence
Source text: as §6, §2, §3, §4, §5

## Cc1cnc(C2=NC(=O)C(C)(C(C)C)N2)c(C(=O)O)c1 (stereo not drawn) [imazapic]
[1]; 8 DAT
  observed activity in % destruction: 20%
[1]; 20 DAT
  observed activity in % destruction: 0%
[2]; 8 DAT
  observed activity in % destruction: 20%
[2]; 20 DAT
  observed activity in % destruction: 30%
[3]; 8 DAT
  observed activity in % destruction: 35%
[3]; 20 DAT
  observed activity in % destruction: 30%
[4]; ECHCG pre-emergence 7.5 g ai/ha
  observed % destruction 20 DAT: 60%
[4]; ECHCG pre-emergence 15 g ai/ha
  observed % destruction 20 DAT: 90%
[4]; 7.5 g ai/ha, 8 DAT
  observed activity in % destruction: 30%
[4]; 7.5 g ai/ha, 20 DAT
  observed activity in % destruction: 60%
[4]; 15 g ai/ha, 8 DAT
  observed activity in % destruction: 65%
[4]; 15 g ai/ha, 20 DAT
  observed activity in % destruction: 90%
[5]; 3.75 g ai/ha, 8 DAT
  observed activity in % destruction: 30%
[5]; 3.75 g ai/ha, 20 DAT
  observed activity in % destruction: 55%
[5]; 7.5 g ai/ha, 8 DAT
  observed activity in % destruction: 50%
[5]; 7.5 g ai/ha, 20 DAT
  observed activity in % destruction: 75%
[5]; 15 g ai/ha, 8 DAT
  observed activity in % destruction: 50%
[5]; 15 g ai/ha, 20 DAT
  observed activity in % destruction: 90%
PHBPU (Ipomoea purpurea); PHBPU pre-emergence 3.75 g ai/ha
  observed % destruction 20 DAT: 25%
PHBPU (Ipomoea purpurea); 8 DAT
  observed activity in % destruction: 30%
PHBPU (Ipomoea purpurea); 20 DAT
  observed activity in % destruction: 25%
ERBVI
  observed % destruction 20 DAT: 65%
[6]; 8 DAT
  observed activity in % destruction: 20%
[6]; 20 DAT
  observed activity in % destruction: 75%
[7]; BRAPL pre-emergence 15 g ai/ha
  observed % destruction 20 DAT: 85%
[7]; 8 DAT
  observed activity in % destruction: 30%
[7]; 20 DAT
  observed activity in % destruction: 85%
SETVI (Setaria viridis); SETVI pre-emergence 3.75 g ai/ha
  observed % destruction 20 DAT: 75%
SETVI (Setaria viridis); SETVI pre-emergence 7.5 g ai/ha
  observed % destruction 20 DAT: 90%
SETVI (Setaria viridis); SETVI pre-emergence 15 g ai/ha
  observed % destruction 20 DAT: 95%
[8]; ALOMY pre-emergence 15 g ai/ha
  observed % destruction 20 DAT: 80%
[8]; 8 DAT
  observed activity in % destruction: 40%
[8]; 20 DAT
  observed activity in % destruction: 80%
[9]; 3.75 g ai/ha, 8 DAT
  observed activity in % destruction: 0%
[9]; 3.75 g ai/ha, 20 DAT
  observed activity in % destruction: 80%
[9]; 7.5 g ai/ha, 8 DAT
  observed activity in % destruction: 30%
[9]; 7.5 g ai/ha, 20 DAT
  observed activity in % destruction: 90%
[9]; 15 g ai/ha, 8 DAT
  observed activity in % destruction: 50%
[9]; 15 g ai/ha, 20 DAT
  observed activity in % destruction: 95%
[10]; LOLMU pre-emergence 3.75 g ai/ha
  observed % destruction 20 DAT: 40%
[10]; LOLMU pre-emergence 7.5 g ai/ha
  observed % destruction 20 DAT: 45%
[10]; LOLMU pre-emergence 15 g ai/ha
  observed % destruction 20 DAT: 65%
[10]; 3.75 g ai/ha, 8 DAT
  observed activity in % destruction: 0%
[10]; 3.75 g ai/ha, 20 DAT
  observed activity in % destruction: 40%
[10]; 7.5 g ai/ha, 8 DAT
  observed activity in % destruction: 0%
[10]; 7.5 g ai/ha, 20 DAT
  observed activity in % destruction: 45%
[10]; 15 g ai/ha, 8 DAT
  observed activity in % destruction: 30%
[10]; 15 g ai/ha, 20 DAT
  observed activity in % destruction: 65%
[11]; COMBE pre-emergence 3.75 g ai/ha
  observed % destruction 20 DAT: 30%
[11]; COMBE pre-emergence 7.5 g ai/ha
  observed % destruction 20 DAT: 40%
[11]; 3.75 g ai/ha, 8 DAT
  observed activity in % destruction: 0%
[11]; 3.75 g ai/ha, 20 DAT
  observed activity in % destruction: 30%
[11]; 7.5 g ai/ha, 8 DAT
  observed activity in % destruction: 20%
[11]; 7.5 g ai/ha, 20 DAT
  observed activity in % destruction: 40%
SOLNI (Solanum nigrum); SOLNI pre-emergence 3.75 g ai/ha
  observed % destruction 20 DAT: 70%
SOLNI (Solanum nigrum); SOLNI pre-emergence 7.5 g ai/ha
  observed % destruction 20 DAT: 85%
SOLNI (Solanum nigrum); SOLNI pre-emergence 15 g ai/ha
  observed % destruction 20 DAT: 90%
SOLNI (Solanum nigrum); 3.75 g ai/ha, 8 DAT
  observed activity in % destruction: 20%
SOLNI (Solanum nigrum); 3.75 g ai/ha, 20 DAT
  observed activity in % destruction: 70%
SOLNI (Solanum nigrum); 7.5 g ai/ha, 8 DAT
  observed activity in % destruction: 40%
SOLNI (Solanum nigrum); 7.5 g ai/ha, 20 DAT
  observed activity in % destruction: 85%
SOLNI (Solanum nigrum); 15 g ai/ha, 8 DAT
  observed activity in % destruction: 50%
SOLNI (Solanum nigrum); 15 g ai/ha, 20 DAT
  observed activity in % destruction: 90%
